This passage reports AC50 results from ChEMBL document CHEMBL5291721, “A preclinical secondary pharmacology resource illuminates target-adverse drug reaction associations of marketed drugs” (Nat Commun, 2023).

Targets include Melanocortin receptor 3 (Homo sapiens, UniProt P41968); Adenosine receptor A2a (Homo sapiens, UniProt P29274); D(3) dopamine receptor (Homo sapiens, UniProt P35462).
For assay [1], the target named is cGMP-inhibited 3',5'-cyclic phosphodiesterase 3A (Homo sapiens, UniProt Q14432). The assay is classed as functional.
Assay [2] has as its target T1, Prostaglandin G/H synthase 1 (Rattus norvegicus, UniProt Q63921).
T1 sequence (Q63921 whole entry): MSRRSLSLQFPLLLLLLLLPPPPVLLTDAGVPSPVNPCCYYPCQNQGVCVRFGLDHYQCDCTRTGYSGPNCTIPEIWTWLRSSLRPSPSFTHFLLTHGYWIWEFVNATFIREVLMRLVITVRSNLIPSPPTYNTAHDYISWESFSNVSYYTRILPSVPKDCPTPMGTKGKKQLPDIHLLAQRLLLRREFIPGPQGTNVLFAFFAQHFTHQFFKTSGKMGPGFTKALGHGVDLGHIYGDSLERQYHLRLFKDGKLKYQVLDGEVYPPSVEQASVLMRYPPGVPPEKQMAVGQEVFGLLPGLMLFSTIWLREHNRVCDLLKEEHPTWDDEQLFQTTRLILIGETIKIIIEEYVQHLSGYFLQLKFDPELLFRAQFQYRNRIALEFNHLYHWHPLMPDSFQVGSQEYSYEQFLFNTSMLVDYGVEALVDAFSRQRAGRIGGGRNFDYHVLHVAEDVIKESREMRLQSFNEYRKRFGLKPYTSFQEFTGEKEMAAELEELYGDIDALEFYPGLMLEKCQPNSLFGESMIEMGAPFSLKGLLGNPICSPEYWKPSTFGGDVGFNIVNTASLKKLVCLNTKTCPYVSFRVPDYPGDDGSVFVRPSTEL
In kind it is functional.

In assay [3] the target is Sodium-dependent noradrenaline transporter (Homo sapiens, UniProt P23975).
The target of assay [4] is Vascular endothelial growth factor receptor 2 (Homo sapiens, UniProt P35968). In kind it is functional.
In assay [5] the target is T2, Alpha-2B adrenergic receptor (Homo sapiens, UniProt P18089).
T2 sequence (P18089 whole entry): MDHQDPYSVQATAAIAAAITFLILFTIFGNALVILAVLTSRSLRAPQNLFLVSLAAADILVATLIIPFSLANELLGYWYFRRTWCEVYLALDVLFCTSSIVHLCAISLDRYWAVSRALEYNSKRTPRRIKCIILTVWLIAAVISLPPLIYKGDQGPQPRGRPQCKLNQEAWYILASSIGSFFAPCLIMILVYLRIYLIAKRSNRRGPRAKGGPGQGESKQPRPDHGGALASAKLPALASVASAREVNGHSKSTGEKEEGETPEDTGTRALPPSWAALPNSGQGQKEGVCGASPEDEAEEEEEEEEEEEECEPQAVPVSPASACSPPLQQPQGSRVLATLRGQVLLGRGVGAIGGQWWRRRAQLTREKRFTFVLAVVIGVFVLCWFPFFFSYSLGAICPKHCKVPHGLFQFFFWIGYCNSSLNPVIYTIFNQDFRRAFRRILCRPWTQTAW

Assay [6] has as its target Delta-type opioid receptor (Homo sapiens, UniProt P41143).
For assay [7], the target named is T3, 5-hydroxytryptamine receptor 3A (Homo sapiens, UniProt P46098).
T3 sequence (P46098 whole entry): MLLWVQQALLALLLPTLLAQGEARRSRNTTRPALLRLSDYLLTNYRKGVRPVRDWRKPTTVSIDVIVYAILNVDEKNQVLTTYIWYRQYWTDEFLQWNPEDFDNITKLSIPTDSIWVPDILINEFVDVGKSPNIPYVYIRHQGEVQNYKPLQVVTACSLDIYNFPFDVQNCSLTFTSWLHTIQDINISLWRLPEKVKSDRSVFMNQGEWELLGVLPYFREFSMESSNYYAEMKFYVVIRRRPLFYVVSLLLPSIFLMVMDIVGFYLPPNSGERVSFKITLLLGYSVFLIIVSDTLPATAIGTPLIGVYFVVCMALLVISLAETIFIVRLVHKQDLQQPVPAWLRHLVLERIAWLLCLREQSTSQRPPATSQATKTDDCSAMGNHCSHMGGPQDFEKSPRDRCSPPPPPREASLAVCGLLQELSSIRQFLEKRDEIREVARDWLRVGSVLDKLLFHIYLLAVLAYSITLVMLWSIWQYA
The assay is classed as functional.

Assay [8] concerns the target Gamma-aminobutyric acid receptor subunit alpha-1 (Rattus norvegicus, UniProt P62813). The assay is classed as functional.
Further: assay procedure not described here.

Chain of cGMP-inhibited 3',5'-cyclic phosphodiesterase 3A (Q14432 whole entry): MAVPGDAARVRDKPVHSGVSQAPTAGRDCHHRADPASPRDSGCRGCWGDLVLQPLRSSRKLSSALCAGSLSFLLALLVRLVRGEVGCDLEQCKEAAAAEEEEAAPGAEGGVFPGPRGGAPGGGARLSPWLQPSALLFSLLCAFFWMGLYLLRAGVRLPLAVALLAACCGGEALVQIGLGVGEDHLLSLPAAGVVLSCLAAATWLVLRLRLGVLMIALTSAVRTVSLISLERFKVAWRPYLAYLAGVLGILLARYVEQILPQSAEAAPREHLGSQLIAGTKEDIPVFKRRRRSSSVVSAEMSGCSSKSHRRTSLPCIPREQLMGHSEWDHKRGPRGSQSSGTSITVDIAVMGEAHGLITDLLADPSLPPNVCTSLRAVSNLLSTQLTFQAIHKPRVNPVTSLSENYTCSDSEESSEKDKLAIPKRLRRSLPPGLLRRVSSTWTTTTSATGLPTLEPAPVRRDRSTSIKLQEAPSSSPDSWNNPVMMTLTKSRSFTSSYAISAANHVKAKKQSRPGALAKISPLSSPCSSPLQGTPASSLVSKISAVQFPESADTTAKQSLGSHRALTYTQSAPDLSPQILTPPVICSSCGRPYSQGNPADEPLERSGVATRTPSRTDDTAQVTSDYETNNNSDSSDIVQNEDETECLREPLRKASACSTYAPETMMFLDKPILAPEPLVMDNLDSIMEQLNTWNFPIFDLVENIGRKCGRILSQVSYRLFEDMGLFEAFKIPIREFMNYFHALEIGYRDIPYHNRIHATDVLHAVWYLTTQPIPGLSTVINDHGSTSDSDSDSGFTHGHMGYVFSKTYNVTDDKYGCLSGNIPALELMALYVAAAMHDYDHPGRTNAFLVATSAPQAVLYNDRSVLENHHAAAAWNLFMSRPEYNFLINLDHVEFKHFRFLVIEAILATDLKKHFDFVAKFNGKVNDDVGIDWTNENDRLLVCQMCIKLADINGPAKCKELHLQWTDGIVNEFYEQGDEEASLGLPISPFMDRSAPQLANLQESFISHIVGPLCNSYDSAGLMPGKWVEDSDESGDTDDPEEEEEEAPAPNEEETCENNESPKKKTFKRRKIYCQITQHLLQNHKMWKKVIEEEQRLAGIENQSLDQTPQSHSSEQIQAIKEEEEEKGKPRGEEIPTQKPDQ
Chain of Melanocortin receptor 3 (P41968 whole entry): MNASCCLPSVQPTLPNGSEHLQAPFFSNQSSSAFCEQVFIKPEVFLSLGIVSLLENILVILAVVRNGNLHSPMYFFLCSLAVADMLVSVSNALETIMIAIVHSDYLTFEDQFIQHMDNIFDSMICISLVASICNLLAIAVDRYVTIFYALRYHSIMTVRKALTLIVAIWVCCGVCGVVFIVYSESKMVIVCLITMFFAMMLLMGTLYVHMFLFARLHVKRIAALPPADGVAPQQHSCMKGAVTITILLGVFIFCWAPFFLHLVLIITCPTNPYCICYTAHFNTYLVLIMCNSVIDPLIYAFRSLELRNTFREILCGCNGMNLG
Chain of D(3) dopamine receptor (P35462 whole entry): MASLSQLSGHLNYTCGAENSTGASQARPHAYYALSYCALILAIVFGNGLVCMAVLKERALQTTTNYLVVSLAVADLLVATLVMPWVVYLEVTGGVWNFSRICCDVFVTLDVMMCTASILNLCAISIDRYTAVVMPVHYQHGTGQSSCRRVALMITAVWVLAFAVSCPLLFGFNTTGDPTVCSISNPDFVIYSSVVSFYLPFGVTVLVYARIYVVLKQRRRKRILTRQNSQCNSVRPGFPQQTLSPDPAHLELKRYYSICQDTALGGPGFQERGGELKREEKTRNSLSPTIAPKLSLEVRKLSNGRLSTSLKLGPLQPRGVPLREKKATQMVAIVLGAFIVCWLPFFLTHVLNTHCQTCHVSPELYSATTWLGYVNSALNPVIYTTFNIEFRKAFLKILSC
Chain of Adenosine receptor A2a (P29274 whole entry): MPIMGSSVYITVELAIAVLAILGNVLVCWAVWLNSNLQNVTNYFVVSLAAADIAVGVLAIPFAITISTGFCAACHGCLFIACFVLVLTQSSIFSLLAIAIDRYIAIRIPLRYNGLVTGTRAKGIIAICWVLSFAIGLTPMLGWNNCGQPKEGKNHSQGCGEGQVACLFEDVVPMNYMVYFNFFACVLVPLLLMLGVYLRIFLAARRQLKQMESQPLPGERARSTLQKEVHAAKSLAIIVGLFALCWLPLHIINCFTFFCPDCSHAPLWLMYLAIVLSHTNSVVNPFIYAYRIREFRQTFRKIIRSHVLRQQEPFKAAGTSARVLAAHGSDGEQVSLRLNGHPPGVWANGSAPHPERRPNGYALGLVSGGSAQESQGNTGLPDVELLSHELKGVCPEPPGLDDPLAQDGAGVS
Chain of Sodium-dependent noradrenaline transporter (P23975 whole entry): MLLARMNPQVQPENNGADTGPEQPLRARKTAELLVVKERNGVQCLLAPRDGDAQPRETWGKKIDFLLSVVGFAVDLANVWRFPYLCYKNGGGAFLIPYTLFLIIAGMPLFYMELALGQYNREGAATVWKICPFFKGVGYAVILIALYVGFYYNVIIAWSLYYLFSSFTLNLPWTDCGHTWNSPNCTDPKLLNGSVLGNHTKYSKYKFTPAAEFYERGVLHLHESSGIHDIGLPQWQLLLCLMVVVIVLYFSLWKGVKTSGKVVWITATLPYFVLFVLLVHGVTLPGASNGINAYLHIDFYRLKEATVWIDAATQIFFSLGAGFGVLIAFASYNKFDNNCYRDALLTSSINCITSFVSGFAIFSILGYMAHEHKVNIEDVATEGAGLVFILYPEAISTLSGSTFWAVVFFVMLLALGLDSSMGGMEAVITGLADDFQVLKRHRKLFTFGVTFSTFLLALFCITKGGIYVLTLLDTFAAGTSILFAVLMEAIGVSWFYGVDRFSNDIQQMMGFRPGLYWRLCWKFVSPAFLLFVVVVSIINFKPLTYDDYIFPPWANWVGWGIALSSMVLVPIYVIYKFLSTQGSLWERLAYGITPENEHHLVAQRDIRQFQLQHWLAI
Chain of Gamma-aminobutyric acid receptor subunit alpha-1 (P62813 whole entry): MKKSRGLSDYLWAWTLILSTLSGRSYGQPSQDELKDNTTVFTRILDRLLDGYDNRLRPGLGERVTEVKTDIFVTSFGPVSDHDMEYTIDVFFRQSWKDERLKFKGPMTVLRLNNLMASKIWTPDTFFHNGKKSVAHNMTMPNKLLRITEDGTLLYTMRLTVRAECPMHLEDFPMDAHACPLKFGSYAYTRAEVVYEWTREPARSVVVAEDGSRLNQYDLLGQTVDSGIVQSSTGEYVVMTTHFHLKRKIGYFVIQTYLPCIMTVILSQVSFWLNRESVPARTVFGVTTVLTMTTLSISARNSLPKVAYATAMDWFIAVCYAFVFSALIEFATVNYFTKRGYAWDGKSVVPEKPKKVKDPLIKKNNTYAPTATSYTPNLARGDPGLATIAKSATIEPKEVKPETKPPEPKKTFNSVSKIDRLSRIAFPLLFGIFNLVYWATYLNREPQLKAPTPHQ
Chain of Vascular endothelial growth factor receptor 2 (P35968 whole entry): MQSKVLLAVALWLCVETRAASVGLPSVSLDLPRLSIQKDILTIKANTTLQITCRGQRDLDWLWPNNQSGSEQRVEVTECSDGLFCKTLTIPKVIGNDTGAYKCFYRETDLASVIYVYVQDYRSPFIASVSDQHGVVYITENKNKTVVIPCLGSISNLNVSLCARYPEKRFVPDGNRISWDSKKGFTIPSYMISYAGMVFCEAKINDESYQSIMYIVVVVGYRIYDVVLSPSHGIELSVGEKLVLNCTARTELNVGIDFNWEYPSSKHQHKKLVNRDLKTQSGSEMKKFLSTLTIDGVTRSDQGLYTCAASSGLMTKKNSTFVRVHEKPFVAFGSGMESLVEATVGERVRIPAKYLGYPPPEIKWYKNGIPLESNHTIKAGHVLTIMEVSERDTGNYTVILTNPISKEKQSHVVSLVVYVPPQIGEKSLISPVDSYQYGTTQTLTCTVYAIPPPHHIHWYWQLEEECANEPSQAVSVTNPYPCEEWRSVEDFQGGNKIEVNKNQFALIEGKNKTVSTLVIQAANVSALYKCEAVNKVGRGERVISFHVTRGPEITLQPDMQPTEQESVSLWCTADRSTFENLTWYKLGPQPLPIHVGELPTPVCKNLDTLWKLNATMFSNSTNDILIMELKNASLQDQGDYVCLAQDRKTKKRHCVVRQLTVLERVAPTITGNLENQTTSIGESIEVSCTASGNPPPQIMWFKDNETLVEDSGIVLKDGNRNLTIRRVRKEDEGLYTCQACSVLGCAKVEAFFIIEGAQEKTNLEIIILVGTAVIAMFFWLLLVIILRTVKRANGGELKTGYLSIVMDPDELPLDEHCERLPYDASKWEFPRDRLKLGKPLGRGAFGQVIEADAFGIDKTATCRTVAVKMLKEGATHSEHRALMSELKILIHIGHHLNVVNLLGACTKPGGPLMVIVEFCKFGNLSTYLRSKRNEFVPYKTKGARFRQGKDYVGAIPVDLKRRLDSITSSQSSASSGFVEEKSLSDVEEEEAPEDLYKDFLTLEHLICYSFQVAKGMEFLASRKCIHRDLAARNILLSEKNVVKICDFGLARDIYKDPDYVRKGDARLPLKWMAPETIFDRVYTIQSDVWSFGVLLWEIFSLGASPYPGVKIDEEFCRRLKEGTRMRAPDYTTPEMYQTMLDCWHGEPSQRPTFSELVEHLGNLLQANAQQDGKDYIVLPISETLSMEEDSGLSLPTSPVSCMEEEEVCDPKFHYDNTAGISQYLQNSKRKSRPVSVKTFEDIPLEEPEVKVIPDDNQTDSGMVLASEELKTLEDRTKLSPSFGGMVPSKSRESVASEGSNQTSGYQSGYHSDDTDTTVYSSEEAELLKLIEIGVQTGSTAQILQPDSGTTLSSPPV

Usually AC50 stands for the concentration giving half of the maximal activity seen. As to `O=C(O)c1cccc(-c2noc(-c3ccccc3F)n2)c1`, the AC50 (on Melanocortin receptor 3; at Adenosine receptor A2a; in [1]; in assay [2]; in [3]; in [4]) was above 30 µM throughout.
For the molecule `Nc1ccc(C(=O)O)cc1` [AMINOBENZOIC ACID], in assay [4], the AC50 is above 30 µM.
Turning to `CCCC1C(=O)N2C(N(C)C)=Nc3ccc(C)cc3N2C1=O` (stereo not given) [APAZONE], in assay [4], the AC50 was above 30 µM.
The molecule `CN(Cc1cc(Br)cc(Br)c1N)C1CCCCC1` [BROMHEXINE] registered an AC50 in assay [4] above 30 µM.
Take `CCCCN(CCCC)CCCOC(=O)c1ccc(N)cc1` [BUTACAINE]: the AC50 in assay [4] was above 30 µM.
`C[C@@H]1C[C@H]2[C@@H]3CCC4=CC(=O)C=C[C@]4(C)[C@@]3(F)[C@@H](O)C[C@]2(C)[C@H]1C(=O)CO` [DESOXIMETASONE] yielded an AC50 in assay [4] above 30 µM.
With `COc1ccc(-c2cc(=O)c3c(O)cc(O[C@@H]4O[C@H](CO[C@@H]5O[C@@H](C)[C@H](O)[C@@H](O)[C@H]5O)[C@@H](O)[C@H](O)[C@H]4O)cc3o2)cc1O` [DIOSMIN], in [4], the AC50 was above 30 µM.
For the molecule `O=C(Nc1ccccc1)OCC(CN1CCCCC1)OC(=O)Nc1ccccc1` (stereo not given) [DIPERODON], the AC50 is above 30 µM on Melanocortin receptor 3; above 30 µM on Adenosine receptor A2a; above 10 µM in assay [5]; above 10 µM in assay [1]; above 10 µM in assay [6]; above 30 µM in assay [2]. Further, the AC50 was above 10 µM in [7]; 1.3 µM at D(3) dopamine receptor; above 10 µM in [8]; 1.1 µM in assay [3]; above 30 µM in [4].
In [4], `CC1=NN(c2ccccc2)C(=O)C1` [EDARAVONE] registered an AC50 above 30 µM.
Consider `O=C1NCC2(CCN(CCc3ccccc3)CC2)O1` [FENSPIRIDE], for which the AC50 in [4] was above 30 µM.
In assay [4], `CC/C=C\C/C=C\C/C=C\C/C=C\C/C=C\CCCC(=O)O` [ICOSAPENT] showed an AC50 above 30 µM.
For `CC(C(O)c1ccc(O)cc1)N1CCC(Cc2ccccc2)CC1` (stereo not given) [IFENPRODIL], the AC50 at Melanocortin receptor 3 was above 30 µM; on Adenosine receptor A2a, above 30 µM; in assay [5] it was 0.44 µM; in [1] it was above 30 µM; in [6], above 30 µM; in assay [2], above 30 µM. The AC50 in assay [7] was above 30 µM; at D(3) dopamine receptor, 1.2 µM; in [8], above 30 µM; in assay [3], 2.5 µM.
In assay [4], `Oc1c(I)cc(I)c2cccnc12` [IODOQUINOL] returned a half-maximal activity concentration (AC50) above 30 µM.
On to `CC(=O)N(CC(O)CO)c1c(I)c(C(=O)NCC(O)CO)c(I)c(C(=O)NCC(O)CO)c1I` (stereo not given) [IOHEXOL], for which the AC50 at Melanocortin receptor 3 is above 30 µM; at Adenosine receptor A2a, above 30 µM; in [5], above 10 µM; in [1], above 30 µM; in assay [6] it was above 30 µM; in [2], above 30 µM. The AC50 in [7] was above 30 µM; at D(3) dopamine receptor, above 30 µM; in assay [8], above 10 µM; in assay [3], above 30 µM.
As for `CCC(Cc1c(I)cc(I)c(N)c1I)C(=O)O` (stereo not given) [IOPANOIC ACID], the AC50 in assay [4] was above 30 µM.
Consider `CN(CCCN1c2ccccc2CCc2ccccc21)CC(=O)c1ccc(Cl)cc1` [LOFEPRAMINE], for which the AC50 on Melanocortin receptor 3 is above 30 µM; at Adenosine receptor A2a it was above 30 µM; in assay [5], 4 µM; in [1] it was above 30 µM; in [6], 30 µM; in [2], 1.3 µM. Moreover, the AC50 is above 30 µM in assay [7], 3 µM on D(3) dopamine receptor, above 30 µM in assay [8] and 0.022 µM in [3].
Regarding `CCC1(c2cccc(O)c2)CCCCN(C)C1` (stereo not given) [MEPTAZINOL], in assay [4], the AC50 was above 30 µM.
Consider `CC(=O)OC(C)C[N+](C)(C)C` (stereo not given) [METHACHOLINE], for which the AC50 in [4] is above 30 µM.
For `CN(C/C=C/c1ccccc1)Cc1cccc2ccccc12` [NAFTIFINE], the AC50 on Melanocortin receptor 3 was above 30 µM; on Adenosine receptor A2a, above 30 µM; in assay [5] it was above 10 µM; in assay [1], above 30 µM; in assay [6] it was above 30 µM; in assay [2] it was 23.1 µM. In addition, the AC50 in [7] was above 30 µM; on D(3) dopamine receptor, above 30 µM; in [8], above 10 µM; in [3], 11.1 µM.
Consider `COc1ccc2c(c1)OC(C)(C)C(c1ccccc1)C2c1ccc(OCCN2CCCC2)cc1` (stereo not given) [ORMELOXIFENE], for which the AC50 in [4] was above 30 µM.
As for `CC(C)NCC1CCc2cc(CO)c([N+](=O)[O-])cc2N1` (stereo not given) [OXAMNIQUINE], the AC50 on Melanocortin receptor 3 is above 10 µM; at Adenosine receptor A2a, above 10 µM; in [5] it was above 10 µM; in assay [1] it was above 30 µM; in assay [6] it was above 30 µM; in [2], above 10 µM. In addition, the AC50 was above 30 µM in [7], 7.4 µM at D(3) dopamine receptor, above 10 µM in [8] and above 30 µM in [3].
`Oc1cccc2cccnc12` [OXYQUINOLINE]: the AC50 in [4] was above 30 µM.
Same read-out and setting: the figure for `Nc1nc2c(ncn2CCC(CO)CO)c(=O)[nH]1` [PENCICLOVIR] is above 30 µM; for `CC[C@@H]1/C=C(\C)C[C@H](C)C[C@H](OC)[C@H]2O[C@@](O)(C(=O)C(=O)N3CCCC[C@H]3C(=O)O[C@H](/C(C)=C/[C@@H]3CC[C@H](Cl)[C@H](OC)C3)[C@H](C)[C@@H](O)CC1=O)[C@H](C)C[C@@H]2OC` [PIMECROLIMUS] it is above 30 µM.
On to `O=C(O)CCn1c2c(c3ccccc31)C[C@H](NS(=O)(=O)c1ccc(F)cc1)CC2` [RAMATROBAN], for which the AC50 is above 30 µM on Melanocortin receptor 3; above 30 µM on Adenosine receptor A2a; above 10 µM in [5]; above 30 µM in assay [1]; above 30 µM in assay [6]; above 30 µM in assay [2]. The half-maximal activity concentration (AC50) in assay [7] is above 30 µM; on D(3) dopamine receptor, above 30 µM; in assay [8] it was above 10 µM; in assay [3] it was above 30 µM.
Turning to `O=C1CCC(N2C(=O)c3ccccc3C2=O)C(=O)N1` (stereo not given) [THALIDOMIDE], the AC50 (at Melanocortin receptor 3; at Adenosine receptor A2a; in assay [1]; in assay [6]; in [2]; in [7]) was above 30 µM each time. Further, the AC50 was above 10 µM at D(3) dopamine receptor, above 10 µM in [8], above 10 µM in [3] and above 30 µM in [4].
`CCC1C(C)=NN=C(c2ccc(OC)c(OC)c2)c2cc(OC)c(OC)cc21` (stereo not given) [TOFISOPAM] displayed an AC50 in assay [4] above 30 µM.
Turning to `CC(=O)N[C@H]1[C@H]([C@H](O)[C@H](O)CO)OC(C(=O)O)=C[C@@H]1N=C(N)N` [ZANAMIVIR], the AC50 (at Melanocortin receptor 3; on Adenosine receptor A2a; in [5]; in [1]; in assay [6]; in assay [2]) was above 30 µM each time. Also, the AC50 in assay [7] was above 30 µM; on D(3) dopamine receptor, above 30 µM; in [8], above 10 µM; in [3] it was above 30 µM.
